Values joined by “and” are separate entries in the source; they are usually repeats but may differ in a detail not shown here. Equal values may be shown once. Ends that are not written are not given here.
Columns and labels:
[1] = test system: collagen-induced arthritis (CIA) mouse model; experiment: Arthritis progression index in collagen-induced arthritis mouse model; assay type: in vivo, DBA/1J mouse
Experimental: In Example 2, using a collagen-induced arthritis mouse model in the following document, a therapeutic effect of a PSP dimer or trimer for a representative inflammatory disease, rheumatoid arthritis was confirmed (Nat Protoc. 2007; 2(5):1269-75.).
A collagen-induced arthritis (CIA) mouse model was prepared as follows, as an autoimmune disease-based arthritis model with characteristics similar to human rheumatoid arthritis.
First, a bovine type II collagen (Chondrex Corporation, USA) and a Freund's complete adjuvant (Chondrex Corporation, USA) were mixed at a ratio of 1:1 and emulsified, and then 50 μl of the emulsified collagen solution was injected intradermally into the tail of a 6-week-old DBA/1J mouse to induce primary immunization. At two weeks after the primary immunization, the bovine type II collagen and the Freund's complete adjuvant were mixed at a ratio of 1:1 and emulsified, and then 50 μl of the emulsified collagen solution was injected intradermally into the tail of the mouse again to induce secondary immunization (boosting). After the secondary immunization, the peptide of the present invention (the PSP dimer (1 μmole) or the PSP trimer (1 μmole)) was administered intraperitoneally three times a week from the next day, and as a comparative experimental group, a PSP monomer-treated group and as a control (Vehicle control), a PBS-treated group were used, respectively. The preparation process of the collagen-induced arthritis mouse model and the administration time of the peptide were schematically illustrated in FIG. 1.
In order to investigate the development of arthritis progression according to the peptide treatment of the present invention, the deepening degree of arthritis with time was measured by evaluating an arthritis progression index. Two observers who were unaware of the specific experimental conditions evaluated progression of arthritis three times a week. In this case, the arthritis progression index was evaluated by 0 to 4 scores per leg according to an arthritis progression evaluation standard by Rossoliniec and the like in Table 2 below to be represented by a total of 0 to 16 scores (a sum of four legs), and thereafter, two observers calculated an average value of the evaluated results to digitize the severity of arthritis.
Methotrexate (MTX), one of drugs which are used as arthritis therapeutic agents in a current clinical practice, had excellent anti-inflammatory and arthritis therapeutic effects as an immunodepressant, but may have side effects such as toxicity to normal cells, oral ulcer, alopecia, interstitial pneumonia, bone marrow suppression, and the like. As a result, the methotrexate is known as a drug that needs to pay close attention after medication with sufficient medication counseling. In Example 2, the arthritis therapeutic effect with the peptide of the present invention and methotrexate (1 mg/kg) was evaluated and compared with the arthritic progression index by using the same method as Example 2-2.

[2] = Evaluation of toxicity: mortality and change in body weight after intraperitoneal administration; assay type: in vivo; conditions: individual mouse
Experimental: In Example 3, in order to confirm the toxicity of the peptide of the present invention, the PSP dimer or the PSP trimer was intraperitoneally administered to mouse at various concentrations (0.1 μmole, 1 μmole, and 10 μmole), and then the mortality and a change in body weight of each mouse were measured. On the other hand, as a control, a non-administration group (Normal) and a PBS-treated group (PBS) were used.

CN(Cc1cnc2nc(N)nc(N)c2n1)c1ccc(C(=O)N[C@@H](CCC(=O)O)C(=O)O)cc1 [MTX, methotrexate]
arthritis progression index ([1]; Table 6, day 14, comparison of PSP dimer with methotrexate (1 mg/kg), 0 to 16 scores): 0.0
arthritis progression index ([1]; Table 6, day 17, comparison with methotrexate (1 mg/kg)): 0.0
arthritis progression index ([1]; Table 6, day 20, comparison with methotrexate (1 mg/kg)): 0.0
arthritis progression index ([1]; Table 6, day 22, comparison with methotrexate (1 mg/kg)): 0.0
arthritis progression index ([1]; Table 6, day 25, comparison with methotrexate (1 mg/kg)): 0.0
arthritis progression index ([1]; Table 6, day 27, comparison with methotrexate (1 mg/kg)): 1.0
arthritis progression index ([1]; Table 6, day 29, comparison with methotrexate (1 mg/kg)): 0.8
arthritis progression index ([1]; Table 6, day 31, comparison with methotrexate (1 mg/kg)): 2.8
arthritis progression index ([1]; Table 6, day 35, comparison with methotrexate (1 mg/kg)): 3.2
arthritis progression index ([1]; Table 7, day 14, comparison of PSP trimer with methotrexate (1 mg/kg), 0 to 16 scores): 0.0
arthritis progression index ([1]; Table 7, day 17, comparison with methotrexate (1 mg/kg)): 0.0
arthritis progression index ([1]; Table 7, day 20, comparison with methotrexate (1 mg/kg)): 0.0
arthritis progression index ([1]; Table 7, day 22, comparison with methotrexate (1 mg/kg)): 0.0
arthritis progression index ([1]; Table 7, day 25, comparison with methotrexate (1 mg/kg)): 0.0
arthritis progression index ([1]; Table 7, day 27, comparison with methotrexate (1 mg/kg)): 1.0
arthritis progression index ([1]; Table 7, day 29, comparison with methotrexate (1 mg/kg)): 0.8
arthritis progression index ([1]; Table 7, day 31, comparison with methotrexate (1 mg/kg)): 2.8
arthritis progression index ([1]; Table 7, day 35, comparison with methotrexate (1 mg/kg)): 3.2

PSPPSP [PSP dimer, PSPPSP]
Body weight ([2]; PSP dimer 0.1 μmol intraperitoneal, day 15): 20.7 g and 20.2 g and 21.6 g and 21 g and 20.1 g and 20.9 g and 19.9 g
Body weight ([2]; PSP dimer 0.1 μmol intraperitoneal, day 18): 20.7 g and 21.1 g (2×) and 22.7 g and 22.4 g and 21.2 g and 21.8 g
Body weight ([2]; PSP dimer 0.1 μmol intraperitoneal, day 22): 23.3 g and 21.9 g and 23.5 g and 22.9 g and 21.4 g and 23.1 g and 22.3 g
Body weight ([2]; PSP dimer 0.1 μmol intraperitoneal, day 25): 22.7 g and 21.4 g and 22.1 g and 23 g and 21.1 g and 22.5 g and 21.7 g
Body weight ([2]; PSP dimer 0.1 μmol intraperitoneal, day 29): 23.2 g (2×) and 21.7 g (2×) and 22.7 g and 23.3 g and 19.5 g
Body weight ([2]; PSP dimer 0.1 μmol intraperitoneal, day 32): 23.5 g and 22.1 g and 23.3 g and 22.7 g and 19.3 g and 23.9 g and 21 g
Body weight ([2]; PSP dimer 0.1 μmol intraperitoneal, day 36): 23.7 g and 18.6 g (2×) and 22.4 g and 22.3 g and 24.2 g and 20.2 g
Body weight ([2]; PSP dimer 1 μmol intraperitoneal, day 18): 23.3 g and 20 g and 22.5 g and 22.1 g and 20.8 g and 21.8 g and 21.1 g
Body weight ([2]; PSP dimer 1 μmol intraperitoneal, day 22): 24.4 g and 20.7 g and 22.5 g (3×) and 23.2 g and 21.5 g
Body weight ([2]; PSP dimer 1 μmol intraperitoneal, day 25): 23.9 g and 19.6 g and 21.8 g and 22.9 g and 21.6 g and 22.3 g and 22.4 g
Body weight ([2]; PSP dimer 1 μmol intraperitoneal, day 29): 23.9 g and 20.1 g and 21.8 g and 23.4 g and 21.3 g and 22.7 g and 23.1 g
Body weight ([2]; PSP dimer 1 μmol intraperitoneal, day 36): 23 g (2×) and 20.7 g and 23.4 g and 21.4 g and 19.4 g and 24.5 g
Body weight ([2]; PSP dimer 10 μmol intraperitoneal, day 15): 19.5 g
Body weight ([2]; PSP dimer 10 μmol intraperitoneal, day 18): 20.8 g

PSPPSPPSP [PSP trimer, PSPPSPPSP]
Body weight ([2]; PSP trimer 0.1 μmol intraperitoneal, day 15): 20.75 g (2×) and 20.64 g and 21.54 g and 19.43 g and 22.27 g and 21.68 g
Body weight ([2]; PSP trimer 0.1 μmol intraperitoneal, day 17): 21 g and 20.6 g and 21.5 g and 19.1 g and 22.3 g and 21.3 g and 21.7 g
Body weight ([2]; PSP trimer 0.1 μmol intraperitoneal, day 20): 21.2 g and 21.3 g and 20.8 g and 19.6 g and 22.9 g and 21.9 g and 21.7 g
Body weight ([2]; PSP trimer 0.1 μmol intraperitoneal, day 24): 22.2 g and 21.7 g and 22.6 g and 19.9 g and 23.8 g and 22.8 g and 21.9 g
Body weight ([2]; PSP trimer 0.1 μmol intraperitoneal, day 27): 21.3 g and 21.4 g and 22.7 g and 19.5 g and 23.6 g and 22.2 g and 21.8 g
Body weight ([2]; PSP trimer 0.1 μmol intraperitoneal, day 31): 20.3 g and 21.3 g and 21 g (2×) and 18.6 g and 24.3 g and 23.3 g
Body weight ([2]; PSP trimer 0.1 μmol intraperitoneal, day 34): 19.7 g and 20.5 g and 19.8 g and 18.1 g and 24.1 g and 23 g and 21.3 g
Body weight ([2]; PSP trimer 1 μmol intraperitoneal, day 15): 20.76 g and 21.15 g (2×) and 21.62 g and 21.02 g and 20.4 g and 19.02 g
Body weight ([2]; PSP trimer 1 μmol intraperitoneal, day 17): 21.5 g (2×) and 21.1 g and 22.2 g and 21.7 g and 21.3 g and 19.1 g
Body weight ([2]; PSP trimer 1 μmol intraperitoneal, day 20): 22.3 g and 21.6 g and 22.9 g and 22.1 g and 21.8 g and 20.8 g and 19.2 g
Body weight ([2]; PSP trimer 1 μmol intraperitoneal, day 24): 23.2 g and 22.6 g and 23.8 g and 22.7 g (2×) and 21.3 g and 20.2 g
Body weight ([2]; PSP trimer 1 μmol intraperitoneal, day 27): 22.3 g and 22.4 g and 23.8 g and 22.8 g and 22.6 g and 21.5 g and 19.8 g
Body weight ([2]; PSP trimer 1 μmol intraperitoneal, day 31): 21.4 g (2×) and 22.7 g and 22.8 g and 22.5 g and 21.7 g and 19.9 g
Body weight ([2]; PSP trimer 1 μmol intraperitoneal, day 34): 20.1 g and 22.6 g and 21.1 g and 19.9 g and 20.7 g and 22 g and 19.3 g
Body weight ([2]; PSP trimer 10 μmol intraperitoneal, day 15): 21.9 g
Body weight ([2]; PSP trimer 10 μmol intraperitoneal, day 17): 21.2 g
